Reference: patent US20260092061A1, “COMPOUNDS FOR TARGETED PROTEIN DEGRADATION” (Amphista Therapeutics Limited, priority 2022, published 2026)

Biological target: T1, BRD9 (Homo sapiens, UniProt Q9H8M2)
T1 sequence (Q9H8M2 1-597): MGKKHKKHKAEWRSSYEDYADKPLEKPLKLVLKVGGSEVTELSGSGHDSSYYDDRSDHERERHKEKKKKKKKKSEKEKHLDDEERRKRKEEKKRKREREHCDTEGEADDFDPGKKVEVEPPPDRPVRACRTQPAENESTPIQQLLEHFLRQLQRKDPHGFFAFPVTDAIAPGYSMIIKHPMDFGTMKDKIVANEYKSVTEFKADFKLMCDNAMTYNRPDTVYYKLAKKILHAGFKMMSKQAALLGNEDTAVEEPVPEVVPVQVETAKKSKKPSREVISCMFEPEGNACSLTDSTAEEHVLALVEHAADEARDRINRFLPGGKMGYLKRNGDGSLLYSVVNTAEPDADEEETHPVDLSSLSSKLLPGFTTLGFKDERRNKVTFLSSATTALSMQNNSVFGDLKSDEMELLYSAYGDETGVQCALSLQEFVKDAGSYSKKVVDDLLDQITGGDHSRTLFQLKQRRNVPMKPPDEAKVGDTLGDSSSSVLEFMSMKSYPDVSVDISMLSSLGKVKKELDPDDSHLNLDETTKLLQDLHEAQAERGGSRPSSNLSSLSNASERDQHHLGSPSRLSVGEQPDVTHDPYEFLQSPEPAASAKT
Test: Degradation of BRD9 (IF), immunofluorescence in MV4-11 cells, 24 hours (Assay Protocol 2)
Format: cell-based
Set-up: A suspension of MV4-11 cells (ATCC CRL-9591) was prepared; host or cells: MV4-11
Details: BRD9 degradation; for DC50: Assay protocol 2, read-out: DC50; for Dmax: MV4-11, Assay protocol 2, read-out: Dmax
Summary of the method: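 MV4-11 cells treated with compound 24 h at 37° C., then fixed, permeabilised and immunostained for BRD9 (anti-BRD9 E4Q3F, Alexa 647 secondary, Hoechst counterstain). High-content imaging quantified nuclear BRD9 signal; % BRD9 remaining normalised to DMSO and 100 nM CFT-8634 controls.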

| Structure (SMILES) | DC50 [nM] | Dmax [%] |
| --- | --- | --- |
| COc1cc(-c2cn(C)c(=O)c(C)c2C)cc(OC)c1CN1CCN(Cc2cccc3c2CCN(C(=O)/C(C#N)=C/C(C)(C)C)[C@H]3C)C2(CC2)C1 (single isomer, unassigned) [Compound B146, (E/Z)-2-(5-((7-(2,6-dimethoxy-4-(1,4,5-trimethyl-6-oxo-1,6-dihydropyridin-3-yl)benzyl)-4,7-diazaspiro[2.5]octan-4-yl)methyl)-1-methyl-1,2,3,4-tetrahydroisoquinoline-2-carbonyl)-4,4-dimethylpent-2-enenitrile] | < 1.25 | > 75 |
| COc1cc(-c2cn(C)c(=O)c(C)c2C)cc(OC)c1CN1CCCN(Cc2cccc3c2CCN(C(=O)/C(C#N)=C/C(C)(C)C)[C@@H]3C)CC1 (single isomer, unassigned) [Compound B192, (E/Z)-2-(5-((4-(2,6-dimethoxy-4-(1,4,5-trimethyl-6-oxo-1,6-dihydropyridin-3-yl)benzyl)-1,4-diazepan-1-yl)methyl)-1-methyl-1,2,3,4-tetrahydroisoquinoline-2-carbonyl)-4,4-dimethylpent-2-enenitrile] | 1.25 to 10 | > 75 |
| COc1cc(-c2cn(C)c(=O)c(C)c2C)cc(OC)c1CN1CCN(Cc2cccc3c2CCN(C(=O)/C(C#N)=C/C2(C)CCOCC2)[C@@H]3C)C2(CC2)C1 (single isomer, unassigned) [Compound B193, (E/Z)-2-(5-((7-(2,6-dimethoxy-4-(1,4,5-trimethyl-6-oxo-1,6-dihydropyridin-3-yl)benzyl)-4,7-diazaspiro[2.5]octan-4-yl)methyl)-1-methyl-1,2,3,4-tetrahydroisoquinoline-2-carbonyl)-3-(4-methyltetrahydro-2H-pyran-4-yl)acrylonitrile] | < 1.25 | > 75 |
| COc1cc(-c2cn(C)c(=O)c(C)c2C)cc(OC)c1CN1CCN(Cc2cccc3c2CCN(C(=O)/C(C#N)=C/C2(C)CCOCC2)[C@H]3C)C2(CC2)C1 (single isomer, unassigned) [Compound B194, (E/Z)-2-(5-((7-(2,6-dimethoxy-4-(1,4,5-trimethyl-6-oxo-1,6-dihydropyridin-3-yl)benzyl)-4,7-diazaspiro[2.5]octan-4-yl)methyl)-1-methyl-1,2,3,4-tetrahydroisoquinoline-2-carbonyl)-3-(4-methyltetrahydro-2H-pyran-4-yl)acrylonitrile] | 1.25 to 10 | 40 to 70 |

The remaining lines, values ahead:

| DC50 [nM] | Dmax [%] | Structure (SMILES) |
| --- | --- | --- |
| 10 to 25 | 40 to 70 | COc1cc(-c2cn(C)c(=O)c(C)c2C)cc(OC)c1CN(C)Cc1cccc2c1CCN(C(=O)/C(C#N)=C/C(C)(C)C)C2C(C)C (mixture of isomers) [Compound C95, (E/Z)-2-(5-(((2,6-dimethoxy-4-(1,4,5-trimethyl-6-oxo-1,6-dihydropyridin-3-yl)benzyl)(methyl)amino)methyl)-1-isopropyl-1,2,3,4-tetrahydroisoquinoline-2-carbonyl)-4,4-dimethylpent-2-enenitrile] |
| 10 to 25 | > 75 | COc1cc(-c2cn(C)c(=O)c(C)c2C)cc(OC)c1CN1C[C@H](C)N(Cc2cccc3c2CCN(C(=O)/C(C#N)=C/C(C)(C)CF)C3C(C)C)C[C@H]1C (mixture of isomers) [Compound C98, (E/Z)-2-(5-(((2S,5R)-4-(2,6-dimethoxy-4-(1,4,5-trimethyl-6-oxo-1,6-dihydropyridin-3-yl)benzyl)-2,5-dimethylpiperazin-1-yl)methyl)-1-isopropyl-1,2,3,4-tetrahydroisoquinoline-2-carbonyl)-5-fluoro-4,4-dimethylpent-2-enenitrile] |
| < 1.25 | > 75 | COc1cc(-c2cn(C)c(=O)c(C)c2C)cc(OC)c1CN1CCN(Cc2ccc3c(c2)C(C)N(C(=O)/C(C#N)=C/C(C)(C)C)CC3)C2(CC2)C1 (mixture of isomers) [Compound C106, (E/Z)-2-(7-((7-(2,6-dimethoxy-4-(1,4,5-trimethyl-6-oxo-1,6-dihydropyridin-3-yl)benzyl)-4,7-diazaspiro[2.5]octan-4-yl)methyl)-1-methyl-1,2,3,4-tetrahydroisoquinoline-2-carbonyl)-4,4-dimethylpent-2-enenitrile] |
